The target in this assay is T1, human cannabinoid CB2 receptor (Homo sapiens, UniProt P34972).
T1 construct: expressed in transfected cells; host or cells: Saccharomyces cerevisiae strain MMY23
Nature of the assay: Cannabinoid CB2 receptor agonist activity, yeast reporter assay (FDGlu fluorescence).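 As to Emax: 100% equals maximal response of reference agonist HU210.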 Format: cell-based. The settings on record: for Emax: read-out: efficacy value (Emax) at the cloned human cannabinoid CB2 receptor.

Each structure is given as a SMILES string. Bounds are passed on as bounds.

T1 sequence (P34972 whole entry): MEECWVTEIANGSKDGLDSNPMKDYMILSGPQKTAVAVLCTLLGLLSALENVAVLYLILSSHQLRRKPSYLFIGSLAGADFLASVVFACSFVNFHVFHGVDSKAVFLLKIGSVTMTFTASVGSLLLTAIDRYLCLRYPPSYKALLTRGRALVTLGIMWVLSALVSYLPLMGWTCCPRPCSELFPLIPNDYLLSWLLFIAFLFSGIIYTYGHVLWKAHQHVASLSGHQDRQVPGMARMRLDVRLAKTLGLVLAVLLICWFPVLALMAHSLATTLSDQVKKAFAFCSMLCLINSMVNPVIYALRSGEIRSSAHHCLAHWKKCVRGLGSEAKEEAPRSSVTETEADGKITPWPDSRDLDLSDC

Regarding `O=C(NCC1CCCC1)c1cnc(Nc2cccc(Br)c2)cc1C(F)(F)F` [Example 122, N-Cyclopentylmethyl-6-(3-bromo-phenylamino)-4-tri-fluoromethyl-nicotinamide], the EC50 was less than 0.3 µM and the Emax was greater than 50%.
Take `O=C(NCC1CC1)c1cnc(Nc2cccc(Br)c2)cc1C(F)(F)F` [Example 123, N-Cyclopropylmethyl-6-(3-bromo-phenylamino)-4-tri-fluoromethyl-nicotinamide]: the EC50 is less than 0.3 µM and the Emax was greater than 50%.
Turning to `O=C(NCC1CCC1)c1cnc(Nc2ccccc2F)cc1C(F)(F)F` [Example 124, N-Cyclobutylmethyl-6-(2-fluoro-phenylamino)-4-tri-fluoromethyl-nicotinamide], the EC50 is less than 0.3 µM and the Emax was greater than 50%.
On the same counts, the results for `O=C(NCC1CCCCCC1)c1cnc(Nc2cccc(F)c2)cc1C(F)(F)F` [Example 125, N-Cycloheptylmethyl-6-(3-fluoro-phenylamino)-4-tri-fluoromethyl-nicotinamide] are less than 0.3 µM and greater than 50%.
Turning to `O=C(NC1CCC1)c1cnc(Nc2cccc(F)c2)cc1C(F)(F)F` [Example 127, N-Cyclobutyl-6-(3-fluoro-phenylamino)-4-trifluoro-methyl-nicotinamide], the 50% effective concentration (EC50) was less than 0.3 µM and the maximal effect (Emax) is greater than 50%.
With `O=C(NCC1CCCCC1)c1cnc(Nc2cccc(F)c2)cc1C(F)(F)F` [Example 128, N-Cyclohexylmethyl-6-(3-fluoro-phenylamino)-4-tri-fluoromethyl-nicotinamide], the EC50 is less than 0.3 µM and the Emax was greater than 50%.
On the same counts, the results for `O=C(NCC1CCC1)c1cnc(Nc2cccc(F)c2)cc1C(F)(F)F` [Example 129, N-Cyclobutylmethyl-6-(3-fluoro-phenylamino)-4-tri-fluoromethyl-nicotinamide] are less than 0.3 µM and greater than 50%.
On to `O=C(NCC1CCCC1)c1cnc(Nc2cccc(F)c2)cc1C(F)(F)F` [Example 130, N-Cyclopentylmethyl-6-(3-fluoro-phenylamino)-4-tri-fluoromethyl-nicotinamide], for which the EC50 was less than 0.3 µM and the Emax is greater than 50%.
On the same counts, the results for `CC(C)CNC(=O)c1cnc(Nc2cccc(F)c2)cc1C(F)(F)F` [Example 131, N-Isobutyl-6-(3-fluoro-phenylamino)-4-trifluoro-methyl-nicotinamide] are less than 0.3 µM and greater than 50%.
On the same counts, the results for `O=C(NCC1CC1)c1cnc(Nc2cccc(F)c2)cc1C(F)(F)F` [Example 132, N-Cyclopropylmethyl-6-(3-fluoro-phenylamino)-4-tri-fluoromethyl-nicotinamide] are less than 0.3 µM and greater than 50%.
For the compound `O=C(NCC1CCS(=O)(=O)C1)c1cnc(Nc2cccc(F)c2)cc1C(F)(F)F` (stereo not drawn) [Example 133, N-(1,1-Dioxo-tetrahydro-thiophen-3-ylmethyl)-6-(3-fluoro-phenylamino)-4-trifluoromethyl-nicotinamide], the EC50 is less than 0.3 µM and the Emax is greater than 50%.
For the compound `O=C(NCC1CCC1)c1cnc(Nc2ccc(F)cc2)cc1C(F)(F)F` [Example 134, N-Cyclobutylmethyl-6-(4-fluoro-phenylamino)-4-trifluoromethyl-nicotinamide], the EC50 is less than 0.3 µM and the Emax is greater than 50%.
Consider `O=C(NCC1CCOCC1)c1cnc(Nc2cccc(Cl)c2Cl)cc1C(F)(F)F` [Example 135, N-(Tetrahydropyran-4-yl-methyl)-6-(2,3-dichloro-phenylamino)-4-trifluoro-methyl-nicotinanhide], for which the EC50 is less than 0.3 µM and the maximal effect (Emax) was greater than 50%.
On the same counts, the results for `O=C(NCC1CCCCCC1)c1cnc(Nc2cccc(Cl)c2Cl)cc1C(F)(F)F` [Example 137, N-Cycloheptylmethyl-6-(2,3-dichloro-phenylamino)-4-tri-fluoromethyl-nicotinamide] are less than 0.3 µM and greater than 50%.
On the same counts, the results for `O=C(NCC1CCCCC1)c1cnc(Nc2ccc(Cl)cc2Cl)cc1C(F)(F)F` [Example 138, N-Cyclohexylmethyl-6-(2,4-dichloro-phenylamino)-4-tri-fluoromethyl-nicotinamide] are less than 0.3 µM and greater than 50%.
On the same counts, the results for `O=C(NCC1CCCCCC1)c1cnc(Nc2ccc(Cl)cc2Cl)cc1C(F)(F)F` [Example 139, N-Cycloheptylmethyl-6-(2,4-dichloro-phenylamino)-4-tri-fluoromethyl-nicotinamide] are less than 0.3 µM and greater than 50%.
As for `O=C(NC1CCC1)c1cnc(Nc2ccc(Cl)cc2Cl)cc1C(F)(F)F` [Example 140, N-Cyclobutyl-6-(2,4-dichloro-phenylamino)-4-trifluoro-methyl-nicotinamide], the EC50 is less than 0.3 µM and the Emax was greater than 50%.
For `O=C(NCC1CCCC1)c1cnc(Nc2ccc(Cl)cc2Cl)cc1C(F)(F)F` [Example 141, N-Cyclopentylmethyl-6-(2,4-dichloro-phenylamino)-4-tri-fluoromethyl-nicotinamide], the Emax was greater than 50%.
`O=C(NCC1CCC1)c1cnc(Nc2ccc(Cl)cc2Cl)cc1C(F)(F)F` [Example 142, N-Cyclobutylmethyl-6-(2,4-dichloro-phenylamino)-4-tri-fluoromethyl-nicotinamide]: the EC50 was less than 0.3 µM and the Emax is greater than 50%.
For the compound `CC(C)CNC(=O)c1cnc(Nc2ccc(Cl)cc2Cl)cc1C(F)(F)F` [Example 143, N-Isobutyl-6-(2,4-dichloro-phenylamino)-4-trifluoro-methyl-nicotinamide], the 50% effective concentration (EC50) was less than 0.3 µM and the Emax was greater than 50%.
On the same counts, the results for `O=C(NCC1CC1)c1cnc(Nc2ccc(Cl)cc2Cl)cc1C(F)(F)F` [Example 144, N-Cyclopropylmethyl-6-(2,4-dichloro-phenylamino)-4-tri-fluoromethyl-nicotinamide] are less than 0.3 µM and greater than 50%.
As to `O=C(NCC1CCCCC1)c1cnc(Nc2cc(Cl)cc(Cl)c2)cc1C(F)(F)F` [Example 146, N-Cyclohexylmethyl-6-(3,5-dichloro-phenytamino)-4-tri-fluoromethyl-nicotinamide], the EC50 was less than 0.3 µM and the Emax was greater than 50%.
On the same counts, the results for `O=C(NCC1CCOCC1)c1cnc(Nc2cc(Cl)cc(Cl)c2)cc1C(F)(F)F` [Example 147, N-(Tetrahydropyran-4-yl-methyl)-6-(3,5-dichloro-phenylamino)-4-trifluoro-methyl-nicotinamide] are less than 0.3 µM and greater than 50%.
With `O=C(NC1CCC1)c1cnc(Nc2cc(Cl)cc(Cl)c2)cc1C(F)(F)F` [Example 148, N-Cyclobutyl-6-(3,5-dichloro-phenylamino)-4-trifluoro-methyl-nicotinamide], the EC50 was less than 0.3 µM and the Emax was greater than 50%.
Regarding `O=C(NCC1CCCC1)c1cnc(Nc2cc(Cl)cc(Cl)c2)cc1C(F)(F)F` [Example 149, N-Cyclopentylmethyl-6-(3,5-dichloro-phenylamino)-4-tri-fluoromethyl-nicotinamide], the EC50 was less than 0.3 µM and the Emax is greater than 50%.
On the same counts, the results for `O=C(NCC1CCC1)c1cnc(Nc2cc(Cl)cc(Cl)c2)cc1C(F)(F)F` [Example 150, N-Cyclobutylmethyl-6-(3,5-dichloro-phenylamino)-4-tri-fluoromethyl-nicotinamide] are less than 0.3 µM and greater than 50%.

The record behind these values is US20060240048A1 (priority 2002, published 2006).
